From patent publication US6440660B1 (priority 1995, dated 2002)
In brackets after ≈: the same amount, converted by molar mass.

How the values were obtained:
P. falciparum W2 = details: strain W2; cited from earlier work
[1] = system: P. falciparum field isolate TM335; details: cited from earlier work
[2] = system: P. falciparum field isolate PR145; details: cited from earlier work
[3] = system: P. falciparum field isolate TM336; details: strain TM336; cited from earlier work
[4] = system: P. falciparum field isolate TM346; details: cited from earlier work
[5] = system: P. falciparum field isolate TM352; details: strain TM352; cited from earlier work
[6] = system: W2mef parasites (resistant to mefloquine); test: Mefloquine resistance reversal study, W2mef (FIGS. 2, 3, 5); assay type: cell-based, P. falciparum; details: mefloquine alone without oligonucleotide, below threshold mefloquine concentration
P. falciparum W2mef = details: strain W2mef; cited from earlier work

Row | Compound | IC50 (P. falciparum W2) [ng/mL] | IC50 [1] [ng/mL] | IC50 [2] [ng/mL] | IC50 [3] [ng/mL] | IC50 [4] [ng/mL] | IC50 [5] [ng/mL] | 3H-hypoxanthine incorporated on average [6] | IC50 (P. falciparum W2mef) [ng/mL]
1 | CCCCN(CCCC)CCC(O)c1cc2c(Cl)cc(Cl)cc2c2cc(C(F)(F)F)ccc12 (stereo not shown) [halofantrine] | 0.3 (≈ 0.000599 µM) | 0.61 (≈ 0.00122 µM) | 2.0 (≈ 0.004 µM) | 2.8 (≈ 0.0056 µM) | 3.7 (≈ 0.00739 µM) | 3.0 (≈ 0.00599 µM) | – | –
2 | OC(c1cc(C(F)(F)F)nc2c(C(F)(F)F)cccc12)C1CCCCN1 (stereo not shown) [mefloquine] | 2 (≈ 0.00529 µM) | 6 (≈ 0.0159 µM) | 10 (≈ 0.0264 µM) | 15 (≈ 0.0396 µM) | 20 (≈ 0.0529 µM) | 22 (≈ 0.0582 µM) | 11,000 cpm | 16 (≈ 0.0423 µM)
3 | C=C[C@H]1C[N@@]2CC[C@H]1C[C@H]2[C@H](O)c1ccnc2ccc(OC)cc12 [quinine] | 74 (≈ 0.228 µM) | 65 (≈ 0.2 µM) | 90 (≈ 0.277 µM) | 87 (≈ 0.268 µM) | – | 1.2 (≈ 0.0037 µM) | – | –
